This is an account of results in US20260242391A1 (priority 2023, published 2026).

Each structure is given as a SMILES string.

One data set relates to HL-60. In words: HL-60 differentiation potency. Type of data set: cell-based. The note with it: Homo sapiens.
The nature of another data set: in vitro. The settings on record: human.

Broadly, the EC50 is the concentration at which the effect is half-maximal. Low values mean an effect from little substance, high ones a need for much substance. By IC50 is commonly meant the midpoint of a concentration-inhibition curve. For `COC(=O)[C@@H]1CCN(CC[C@H]2O[C@@H]3O[C@@]4(C)CC[C@H]5[C@H](C)CC[C@@H]([C@H]2C)[C@@]35OO4)C1` [Compound 70, methyl (R)-1-(2-((3R,5aS,6R,8aS, 9R,10R,12R, 12aR)-3,6,9-trimethyldeca-hydro-12H-3,12-epoxy[1,2]dioxepino[4,3-i]isochromen-10-yl)ethyl) pyrrolidine-3-carboxylate], the EC50 with HL-60 is over 20 µM. Further, the IC50 in the data set “in vitro” is over 20 µM.

In the case of `C[C@H]1[C@@H](Oc2ccc(CCCCC(=O)O)cc2)O[C@@H]2O[C@@]3(C)CC[C@H]4[C@H](C)CC[C@@H]1[C@@]24OO3` [Compound 72, 5-(4-(((3R,5aS, 6R,8aS,9R,10S, 12R,12aR)-3,6,9-trimethyldeca-hydro-12H-3,12-epoxy[1,2]dioxepino[4,3-i]isochromen-10-yl)oxy)phenyl) pentanoic acid], the midpoint of the response with HL-60, the EC50, lay at 0.113 µM. Further, in “in vitro”, the IC50 is 0.777 µM.

The molecule `C[C@H]1[C@@H](Oc2ccc(-c3nn[nH]n3)cc2)O[C@@H]2O[C@@]3(C)CC[C@H]4[C@H](C)CC[C@@H]1[C@@]24OO3` [Compound 73, 5-(4-(((3R,5aS,6R, 8aS,9R,10S,12R, 12aR)-3,6,9-trimethyldeca-hydro-12H-3,12-epoxy[1,2]dioxepino[4,3-i]isochromen-10-yl)oxy)phenyl)-2H-tetrazole] came in with an EC50 in the data set on HL-60 of 0.0346 µM. The molecule also registered a 50% inhibitory concentration (IC50) in the data set “in vitro” of 0.0319 µM.

On to `Cc1cc(C(=O)O)ccc1CO[C@H]1O[C@@H]2O[C@@]3(C)CC[C@H]4[C@H](C)CC[C@@H]([C@H]1C)[C@@]24OO3` [Compound 74, 3-methyl-4-((((3R,5aS,6R,8aS, 9R,10S,12R, 12aR)-3,6,9-trimethyldeca-hydro-12H-3,12-epoxy[1,2]dioxepino[4,3-i]isochromen-10-yl)oxy)methyl) benzoic acid], for which, in the data set with HL-60, the EC50 was 0.865 µM. For the same molecule, the IC50 in “in vitro” was over 20 µM.

Take `C[C@H]1[C@@H](OCC23CCC(C(=O)O)(CC2)CC3)O[C@@H]2O[C@@]3(C)CC[C@H]4[C@H](C)CC[C@@H]1[C@@]24OO3` [Compound 75, 4-((((3R,5aS,6R, 8aS,9R,10S,12R, 12aR)-3,6,9-trimethyldeca-hydro-12H-3,12-epoxy[1,2]dioxepino[4,3-i]isochromen-10-yl)oxy)methyl) bicyclo[2.2.2] octane-1-carboxylic acid]: in the data set on HL-60, the midpoint of the response, the EC50, lay at 1.18 µM. The same molecule returned an IC50 in “in vitro” of over 20 µM.

`C[C@H]1[C@@H](OCCS(C)(=O)=O)O[C@@H]2O[C@@]3(C)CC[C@H]4[C@H](C)CC[C@@H]1[C@@]24OO3` [Compound 90, (3R,5aS,6R,8aS, 9R,10S,12R, 12aR)-3,6,9-trimethyl-10-(2-(methylsulfonyl)ethoxy)deca-hydro-12H-3,12-epoxy[1,2] dioxepino[4,3-i] isochromene] displayed an EC50 with HL-60 of over 20 µM. In the data set “in vitro”, this molecule displayed an IC50 of over 20 µM.

In the case of `C[C@H]1[C@H](OCc2cccc(C(=O)O)c2)O[C@@H]2O[C@@]3(C)CC[C@H]4[C@H](C)CC[C@@H]1[C@@]24OO3` [Compound 91, 3-((((3R,5aS,6R,8aS, 9R,10R,12R, 12aR)-3,6,9-trimethyldeca-hydro-12H-3,12-epoxy[1,2]dioxepino[4,3-i]isochromen-10-yl)oxy)methyl) benzoic acid], in the data set with HL-60, the EC50 was determined as 17.5 µM. The molecule also returned an IC50 in “in vitro” of over 20 µM.

Molecule `C[C@H]1[C@H](OCc2ccc(C(=O)O)c(Cl)c2)O[C@@H]2O[C@@]3(C)CC[C@H]4[C@H](C)CC[C@@H]1[C@@]24OO3` [Compound 92, 2-chloro-4-((((3R,5aS,6R, 8aS,9R,10R,12R, 12aR)-3,6,9-trimethyldeca-hydro-12H-3,12-epoxy[1,2]dioxepino[4,3-i]isochromen-10-yl)oxy)methyl) benzoic acid] gave a concentration giving a half-maximal response (EC50) in the data set on HL-60 of over 20 µM. Besides, the concentration for half-maximal inhibition (IC50) in the data set “in vitro” is over 20 µM.

For `C[C@H]1[C@@H](OC(=O)CCC(O)c2ccc(Cl)cc2)O[C@@H]2O[C@@]3(C)CC[C@H]4[C@H](C)CC[C@@H]1[C@@]24OO3` (stereo partly drawn) [Compound 93, (3R,5aS,6R,8aS, 9R,10R,12R, 12aR)-3,6,9-trimethyldeca-hydro-12H-3,12-epoxy[1,2] dioxepino[4,3-i] isochromen-10-yl 4-(4-chlorophenyl)-4-hydroxybutanoate], the EC50 with HL-60 was determined as 0.0786 µM. In the data set “in vitro”, it took 0.0877 µM to reach half-maximal inhibition (IC50).

As for `C[C@H]1[C@H](NCCc2ccccc2)O[C@@H]2O[C@@]3(C)CC[C@H]4[C@H](C)CC[C@@H]1[C@@]24OO3` [Compound 94, (3R,5aS,6R,8aS, 9R,10R,12R, 12aR)-3,6,9-trimethyl-N-phenethyldeca-hydro-12H-3,12-epoxy[1,2] dioxepino[4,3-i] isochromen-10-amine], in the data set on HL-60, the concentration for a half-maximal effect (EC50) was 0.257 µM. Moreover, in the data set “in vitro”, the IC50 is 0.315 µM.

Regarding `CNC(=O)CCN[C@@H]1O[C@@H]2O[C@@]3(C)CC[C@H]4[C@H](C)CC[C@@H]([C@H]1C)[C@@]24OO3` [Compound 95, N-methyl-3-(((3R,5aS,6R,8aS, 9R,10R,12R, 12aR)-3,6,9-trimethyldeca-hydro-12H-3,12-epoxy[1,2]dioxepino[4,3-i]isochromen-10-yl)amino) propanamide], the EC50 in the data set on HL-60 was determined as 0.348 µM. Further, in the data set “in vitro”, the midpoint of inhibition, the IC50, lay at 0.352 µM.

`C[C@H]1[C@H](NCCC(N)=O)O[C@@H]2O[C@@]3(C)CC[C@H]4[C@H](C)CC[C@@H]1[C@@]24OO3` [Compound 96, 3-(((3R,5aS,6R,8aS, 9R,10R,12R, 12aR)-3,6,9-trimethyldeca-hydro-12H-3,12-epoxy[1,2]dioxepino[4,3-i]isochromen-10-yl)amino) propanamide]: the EC50 in the data set with HL-60 came to 1.7 µM. In “in vitro”, this molecule returned an IC50 of 1.98 µM.

For `CNS(=O)(=O)CCN[C@@H]1O[C@@H]2O[C@@]3(C)CC[C@H]4[C@H](C)CC[C@@H]([C@H]1C)[C@@]24OO3` [Compound 97, N-methyl-2-(((3R,5aS,6R,8aS, 9R,10R,12R, 12aR)-3,6,9-trimethyldeca-hydro-12H-3,12-epoxy[1,2]dioxepino[4,3-i]isochromen-10-yl)amino)ethane-1-sulfonamide], the midpoint of the response in the data set on HL-60, the EC50, lay at 2.34 µM. The IC50 in the data set “in vitro” amounted to 2.08 µM.

`C[C@H]1[C@H](NCc2ccncc2)O[C@@H]2O[C@@]3(C)CC[C@H]4[C@H](C)CC[C@@H]1[C@@]24OO3` [Compound 98, (3R,5aS,6R,8aS, 9R,10R,12R, 12aR)-3,6,9-trimethyl-N-(pyridin-4-ylmethyl)deca-hydro-12H-3,12-epoxy[1,2] dioxepino[4,3-i] isochromen-10-amine] displayed an EC50 in the data set with HL-60 of over 20 µM. The IC50 in the data set “in vitro” is over 20 µM.

`C[C@H]1[C@H](NCCS(C)(=O)=O)O[C@@H]2O[C@@]3(C)CC[C@H]4[C@H](C)CC[C@@H]1[C@@]24OO3` [Compound 99, (3R,5aS,6R,8aS, 9R,10R,12R, 12aR)-3,6,9-trimethyl-N-(2-(methylsulfonyl)ethyl)decahydro-12H-3,12-epoxy [1,2]dioxepino [4,3-i]isochromen-10-amine]: the EC50 in the data set on HL-60 stood at 0.659 µM. In addition, the IC50 in “in vitro” is 0.743 µM.

Consider `C[C@H]1[C@H](NCCCS(C)(=O)=O)O[C@@H]2O[C@@]3(C)CC[C@H]4[C@H](C)CC[C@@H]1[C@@]24OO3` [Compound 100, (3R,5aS,6R,8aS, 9R,10R,12R, 12aR)-3,6,9-trimethyl-N-(3-(methylsulfonyl)propyl)deca-hydro-12H-3,12-epoxy[1,2] dioxepino[4,3-i] isochromen-10-amine], for which the EC50 in the data set on HL-60 came to 0.498 µM. This molecule also returned an IC50 in the data set “in vitro” of 0.535 µM.

As for `C[C@H]1[C@H](NCc2ccccc2)O[C@@H]2O[C@@]3(C)CC[C@H]4[C@H](C)CC[C@@H]1[C@@]24OO3` [Compound 101, (3R,5aS,6R,8aS, 9R,10R,12R, 12aR)-N-benzyl-3,6,9-trimethyldeca-hydro-12H-3,12-epoxy[1,2] dioxepino[4,3-i] isochromen-10-amine], the EC50 in the data set on HL-60 was found to be 0.835 µM. Besides, in “in vitro”, the IC50 came to 1.31 µM.

As for `C[C@H]1[C@H](N(C)Cc2ccc(C(=O)O)cc2)O[C@@H]2O[C@@]3(C)CC[C@H]4[C@H](C)CC[C@@H]1[C@@]24OO3` [Compound 102, 4-((methyl((3R, 5aS,6R,8aS,9R, 10R,12R,12aR)-3,6,9-trimethyldeca-hydro-12H-3,12-epoxy[1,2]dioxepino[4,3-i]isochromen-10-yl)amino)methyl) benzoic acid], the EC50 in the data set on HL-60 is over 20 µM. This molecule also gave an IC50 in the data set “in vitro” of over 20 µM.

`C[C@H]1[C@H](N(C)C23CC(C(=O)O)(C2)C3)O[C@@H]2O[C@@]3(C)CC[C@H]4[C@H](C)CC[C@@H]1[C@@]24OO3` [Compound 103, 3-(methyl((3R,5aS, 6R,8aS,9R,10R, 12R,12aR)-3,6,9-trimethyldeca-hydro-12H-3,12-epoxy[1,2]dioxepino[4,3-i]isochromen-10-yl)amino)bicyclo [1.1.1]pentane-1-carboxylic acid] showed an EC50 in the data set with HL-60 of over 20 µM. Further, the half-maximal inhibitory concentration (IC50) in the data set “in vitro” is over 20 µM.

For `C[C@H]1[C@@H](Oc2ccc(CC(=O)NC(C)(C)C)cc2)O[C@@H]2O[C@@]3(C)CC[C@H]4[C@H](C)CC[C@@H]1[C@@]24OO3` [Compound 104, N-(tert-butyl)-2-(4-(((3R,5aS,6R,8aS, 9R,10S,12R, 12aR)-3,6,9-trimethyldeca-hydro-12H-3,12-epoxy[1,2]dioxepino[4,3-i]isochromen-10-yl)oxy)phenyl) acetamide], the midpoint of the response in the data set with HL-60, the EC50, lay at 0.0523 µM. The IC50 in the data set “in vitro” came to 0.16 µM.

On to `C[C@H]1[C@H](OCC2CCC(F)(F)CC2)O[C@@H]2O[C@@]3(C)CC[C@H]4[C@H](C)CC[C@@H]1[C@@]24OO3` [Compound 105, (3R,5aS,6R,8aS, 9R,10R,12R, 12aR)-10-((4,4-difluorocyclo-hexyl)methoxy)-3,6,9-trimethyldeca-hydro-12H-3,12-epoxy[1,2] dioxepino[4,3-i] isochromene], for which, in the data set with HL-60, the EC50 is 0.0484 µM. In “in vitro”, this molecule gave an IC50 of 0.2 µM.

`C[C@H]1[C@@H](OCC2CCC(F)(F)CC2)O[C@@H]2O[C@@]3(C)CC[C@H]4[C@H](C)CC[C@@H]1[C@@]24OO3` [Compound 106, (3R,5aS,6R,8aS, 9R,10S,12R, 12aR)-10-((4,4-difluorocyclo-hexyl)methoxy)-3,6,9-trimethyldeca-hydro-12H-3,12-epoxy[1,2] dioxepino[4,3-i] isochromene] returned an EC50 in the data set on HL-60 of 0.0204 µM. Moreover, inhibition in “in vitro” was half-maximal at 0.1 µM (IC50).
